Source: EP0946545B1, “NOVEL CARBOXY SUBSTITUTED CYCLIC CARBOXAMIDE DERIVATIVES” (Aventis Pharmaceuticals Inc., priority 1996, dated 1998)
Structures can show the parent of a compound that is named as a salt. Where two headings read alike, the source gives them in different places.

Tests used:
NK1 receptor = molecular target: T1, NK1 receptor (Cavia porcellus, UniProt P30547); experiment: Antagonism of iodinated tachykinin binding to NK1 receptors (Example A); design: species or system guinea pig
T1 construct: evaluated in guinea pig lungs (Keystone Biologicals, Cleveland, OH); tissue Keystone Biologicals, Cleveland, OH; host or cells: guinea pig lung membranes
Protocol: (§1) One skilled in the art can determine the NK1 receptor and NK2 receptor affinity in vitro as follows. The NK1 receptor affinity of tachykinin antagonists is evaluated in guinea pig lungs (Keystone Biologicals, Cleveland, OH) and affinity for the NK2 receptor is evaluated in HSKR-1 cells (which are mouse 3T3 fibroblasts expressing the human jejunal NK2 receptor). Tissues or cells are homogenized with a Polytron in 15 volumes of 50 mM Tris-HC1 buffer (pH 7.4, 4°C) and centrifuged. The pellet is resuspended in Tris-HCl buffer and is centrifuged; the pellet is washed twice by resuspension. The final pellet is resuspended at a concentration of 40 mg/ml for tissues and 20 mg/ml for cells in incubation buffer and remains at room temperature for at least 15 min prior to use. Receptor binding is initiated by addition of 250 ul membrane preparation in duplicate to 0.1 nM of the following radioligands: ^125I-Bolton Hunter Lys-3 labeled substance P and ^125iodohistidyl-1-neurokinin A; in a final volume of 500 ul of buffer containing 50 mM Tris-HCl (pH 7.4 at room temperature), 0.1% bovine serum albumin, 2 mM mangenese chloride, 40 ug/ml bacitracin, 4 µg/ml leupeptin and chymostatin, 10 µM thiorphan and various doses of the putative tachykinin antagonists. Incubations are performed at room temperature for 90 min (NK1 receptor assays) or 2 hr (NK2 receptor assay); binding is terminated by addition of 50 mM Tris-HCl buffer (pH 7.4, 4°C) and filtration under vacuum through GF/B filters presoaked with 0.1% polyethyleneimine (NK1 receptor assays) or 0.5% bovine serum albumin (NK2 receptor assay). Filter bound radioactivity is quantitated in a gamma counter. Nonspecific binding is defined as binding in the presence of 1 µM substance P or neurokinin A. Specific binding is calculated by subtracting nonspecific binding from total binding. Competition of iodinated SP or NKA binding by test compounds or standards is expressed as a percentage of this maximum binding. IC50 values (concentration required to inhibit 50% of receptor binding) are generated for each of the test compounds by nonlinear regression using an iterative curve fitting program (GraphPAD Inplot, San Diego, CA).
(§2) Tackykinin receptor binding (IC50 values) for representative compounds of the present invention is found in Table 1. The values in Table 1 were determined by the method of present Example A and represent the mean of several experiments, except where noted. […]

[1] = molecular target: T2, human jejunal NK2 receptor (Homo sapiens, UniProt P21452); experiment: Antagonism of iodinated tachykinin binding to NK2 receptors (Example A)
T2 construct: expressed in transfected cells; host or cells: HSKR-1 cells (mouse 3T3 fibroblasts)
T2 sequence (P21452 1-398): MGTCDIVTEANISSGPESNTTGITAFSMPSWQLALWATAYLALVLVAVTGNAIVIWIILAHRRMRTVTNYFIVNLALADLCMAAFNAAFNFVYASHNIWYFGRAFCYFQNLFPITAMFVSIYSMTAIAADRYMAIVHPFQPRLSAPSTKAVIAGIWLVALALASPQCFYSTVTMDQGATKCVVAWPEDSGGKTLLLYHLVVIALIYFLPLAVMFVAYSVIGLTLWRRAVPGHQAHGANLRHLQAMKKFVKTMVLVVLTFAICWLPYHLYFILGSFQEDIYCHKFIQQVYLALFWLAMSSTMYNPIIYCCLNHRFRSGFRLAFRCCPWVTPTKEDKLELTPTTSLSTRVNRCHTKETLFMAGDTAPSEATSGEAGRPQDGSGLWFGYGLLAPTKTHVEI
Protocol: as §1, §2

[2] = read-out: Tachykinin Receptor Binding NK1 IC50, guinea pig lungs membranes, 0.1 nM 125I-Bolton Hunter Lys-3 labeled substance P, 90 min room temperature, mean of several experiments
[3] = read-out: Tachykinin Receptor Binding NK2 IC50, HSKR-1 cells (mouse 3T3 fibroblasts expressing the human jejunal NK2 receptor), 0.1 nM 125iodohistidyl-1-neurokinin A, 2 hr room temperature, mean of several experiments

T1 sequence (P30547 whole entry): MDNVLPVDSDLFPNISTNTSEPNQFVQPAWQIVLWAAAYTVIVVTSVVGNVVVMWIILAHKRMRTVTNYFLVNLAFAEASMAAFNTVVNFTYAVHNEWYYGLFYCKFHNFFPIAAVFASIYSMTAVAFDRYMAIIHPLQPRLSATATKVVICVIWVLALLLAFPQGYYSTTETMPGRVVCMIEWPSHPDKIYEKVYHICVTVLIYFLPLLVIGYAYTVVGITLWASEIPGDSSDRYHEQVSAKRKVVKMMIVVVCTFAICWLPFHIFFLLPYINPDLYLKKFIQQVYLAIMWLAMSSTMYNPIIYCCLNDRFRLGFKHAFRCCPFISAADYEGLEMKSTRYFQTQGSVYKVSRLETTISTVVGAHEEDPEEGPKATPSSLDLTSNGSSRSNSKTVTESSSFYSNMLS

| Structure (SMILES) | IC50 (NK1 receptor) [nM] | IC50 [1] [nM] | IC50 (NK1 receptor; [2]) [nM] | IC50 [1, 3] [nM] |
| --- | --- | --- | --- | --- |
| COc1cc(C(=O)N2CC[C@](CCN3CCC(C(=O)N4CCN(CCC(=O)O)CC4)(c4ccccc4)CC3)(c3ccc(Cl)c(Cl)c3)C2)cc(OC)c1OC [Example 28.2, (R)-1-(3,4,5-trimethoxybenzoyl)-3-(2-(4-phenyl-4-((4-carboxyethylpiperazin-1-yl)carboxamido)piperidine)ethyl)-3-(3,4-dichlorophenyl)pyrrolidine hydrochloric acid salt] | 19.6 | 3.73 |  |  |
| CCOC(=O)CCCN1CCN(C(=O)C2(c3ccccc3)CCN(CC[C@]3(c4ccc(Cl)c(Cl)c4)CCN(C(=O)c4cc(OC)c(OC)c(OC)c4)C3)CC2)CC1 [Example 29.2, (R)-1-(3,4,5-trimethoxybenzoyl)-3-(2-(4-phenyl-4-((4-carboethoxypropylpiperazin-1-yl)carboxamido)piperidine)ethyl)-3-(3,4-dichlorophenyl)pyrrolidine fumaric acid salt] | 11.9 | 3.21 |  |  |
| COc1cc(C(=O)N2CC[C@](CCN3CCC(C(=O)N4CCN(CCCC(=O)O)CC4)(c4ccccc4)CC3)(c3ccc(Cl)c(Cl)c3)C2)cc(OC)c1OC [Example 30.2, (R)-1-(3,4,5-trimethoxybenzoyl)-3-(2-(4-phenyl-4-((4-carboxypropylpiperazin-1-yl)carboxamido)piperidine)ethyl)-3-(3,4-dichlorophenyl)pyrrolidine hydrochloric acid salt] | 3.4 | 3.6 |  |  |
| CCOC(=O)OCOC(=O)CN1CCN(C(=O)C2(c3ccccc3)CCN(CC[C@]3(c4ccc(Cl)c(Cl)c4)CCN(C(=O)c4cc(OC)c(OC)c(OC)c4)C3)CC2)CC1 [Example 31.2, (R)-1-(3,4,5-trimethoxybenzoyl)-3-(2-(4-phenyl-4-((4-carbo(ethoxycarbonyloxymethoxy)methylpiperazin-1-yl)carboxamido)piperidine)ethyl)-3-(3,4-dichlorophenyl)pyrrolidine fumaric acid salt] |  |  | 11.7 | 9.1 |
| COc1cc(C(=O)N2CC[C@](CCN3CCC(C(=O)N4CCN(CC(=O)OCOC(=O)C(C)(C)C)CC4)(c4ccccc4)CC3)(c3ccc(Cl)c(Cl)c3)C2)cc(OC)c1OC [Example 32.2, (R)-1-(3,4,5-trimethoxybenzoyl)-3-(2-(4-phenyl-4-((4-carbo(t-butylcarbonyloxymethoxy)methylpiperazin-1-yl)carboxamido)piperidine)ethyl)-3-(3,4-dichlorophenyl)pyrrolidine fumaric acid salt] |  |  | 21.2 | 13.9 |
| CCN(CC)C(=O)COC(=O)CN1CCN(C(=O)C2(c3ccccc3)CCN(CC[C@]3(c4ccc(Cl)c(Cl)c4)CCN(C(=O)c4cc(OC)c(OC)c(OC)c4)C3)CC2)CC1 [Example 33.2, (R)-1-(3,4,5-trimethoxybenzoyl)-3-(2-(4-phenyl-4-((4-carbo(N,N-diethylcarboxamidomethoxy)methylpiperazin-1-yl)carboxamido)piperidine)ethyl)-3-(3,4-dichlorophenyl)pyrrolidine fumaric acid salt] |  |  | 3.95 | 2.43 |
| CCCC(=O)OCOC(=O)CN1CCN(C(=O)C2(c3ccccc3)CCN(CC[C@]3(c4ccc(Cl)c(Cl)c4)CCN(C(=O)c4cc(OC)c(OC)c(OC)c4)C3)CC2)CC1 [Example 35.2, (R)-1-(3,4,5-trimethoxybenzoyl)-3-(2-(4-phenyl-4-((4-carbo(propylcarbonyloxymethoxy)methylpiperazin-1 yl)carboxamido)piperidine)ethyl)-3-(3,4-dichlorophenyl)pyrrolidine fumaric acid salt] |  |  | 14.7 | 11.7 |
| COc1cc(C(=O)N2CC[C@](CCN3CCC(C(=O)N4CCN(CC(=O)OCC(=O)N(CCO)CCO)CC4)(c4ccccc4)CC3)(c3ccc(Cl)c(Cl)c3)C2)cc(OC)c1OC [Example 36.1, (R)-1-(3,4,5-Trimethoxybenzoyl)-3-(2-(4-phenyl-4-((4-carbo(N,N-di-(2-hydroxyethyl)carboxamidomethoxy)methylpiperazin-1-yl)carboxamido)piperidin-1-yl)ethyl)-3-(3,4-dichlorophenyl)pyrrolidine] |  |  | 2.68 | 2.32 |
| COc1cc(C(=O)N2CC[C@](CCN3CCC(C(=O)N4CCN(CC(=O)OCC(=O)N(C)CCN(C)C)CC4)(c4ccccc4)CC3)(c3ccc(Cl)c(Cl)c3)C2)cc(OC)c1OC [Example 37.2, (R)-1-(3,4,5-Trimethoxybenzoyl)-3-(2-(4-phenyl-4-((4-carbo(N-methyl-N-(2-dimethylaminoethyl))carboxamidomethoxy)methylpiperazin-1-yl)carboxamido)piperidin-1-yl)ethyl)-3-(3,4-dichlorophenyl)pyrrolidine fumaric acid salt] |  |  | 2.09 | 0.9 |
| COc1cc(C(=O)N2CC[C@](CCN3CCC(C(=O)N4CCN(CC(=O)OCc5oc(=O)oc5C)CC4)(c4ccccc4)CC3)(c3ccc(Cl)c(Cl)c3)C2)cc(OC)c1OC [Example 38.2, (R)-1-(3,4,5-Trimethoxybenzoyl)-3-(2-(4-phenyl-4-((4-carbo(5-methyl-2-oxo-1,3-dioxol-4-yimethoxy)methylpiperazin-1-yl)carboxamido)piperidin-1-yl)ethyl)-3-(3,4-dichlorophenyl)pyrrolidine fumaric acid salt] |  |  | 7.82 | 4.3 |
